Values quoted from earlier work in patent US8529954B2, “Composition based on gamma-hydroxybutyric acid” (Debregeas et Associes Pharma, priority 2008, dated 2013).
Counter-ions that a name gives are not always drawn.

Key:
[1] = approximately

SMILES | stability in an acidic environment | maximum peak after its administration (time of peak) ([1]; absorbed by the gastroenteric system) | half life [1] | time in which it is eliminated [1]
O=C(O)CCCO [GHB, Gamma-hydroxybutyric acid] | unstable |  |  | 
O=C(O)CCCO [sodium hydroxybutyrate, sodium salt of 4-hydroxybutyric acid] |  | 30 to 45 min | 20 to 25 min | 4 to 5 h
